Measurements from PMC4980245 (Environmental and molecular mutagenesis, 2016).

Tests used:
[1] = system: TK6 cells; assay: Cytotoxicity by relative nuclei counts; assay type: cell-based; conditions: TK6 cells with rat liver S9
[2] = system: Phospho-Histone H3; assay: MultiFlow DNA Damage Kit flow cytometry, phospho-histone H3; assay type: cell-based; conditions: TK6 cells with rat liver S9; effect particularly evident at 24 hrs for PhIP
[3] = Precipitation/solubility limit of the top test concentration; conditions: for top non-precipitating conc.: precipitation in 100× stock solution or upon addition to culture medium
[4] = system: HepG2 cells; conditions: cited from earlier work
[5] = system: p53; assay type: cell-based; conditions: 24 hr time point; TK6 cells, 4 hr exposure with 2% rat liver S9
[6] = system: TK6 cells; assay: MultiFlow flow cytometry, polyploidy; assay type: cell-based; conditions: TK6 cells with rat liver S9
[7] = system: γH2AX; assay: MultiFlow DNA Damage Kit flow cytometry, γH2AX in TK6 cells with rat liver S9; assay type: cell-based; conditions: 4 hr exposure with 2% rat liver S9
[8] = system: male rat kidney; conditions: due to α2μ-globulin nephropathy; ref Kirkland et al., 2015; cited from earlier work

For `CCN(CC)N=O` [N-Nitrosodiethylamine (DEN), N-Nitrosodiethylamine], the “cytotoxicity (reductions to RNC)” value [1] was “no evidence of cytotoxicity” and the “proportion of mitotic (p-H3 positive) cells” value [2] was “no evidence of cytotoxicity”.

For Tunicamycin, the “top conc. due to solubility” value [3] was 500 µM.

For `Cc1cc2ncccc2c2nc(N)n(C)c12` [3,4-Dimethylimidazo[4,5-f]quinolin-2-amine], the “induction of MN in HepG2 cells” value [4] is listed as “weak inducer”.

For `Cn1c(N)nc2ncc(-c3ccccc3)cc21` [2-amino-1-methyl-6-phenylimidazo [4,5-b]pyridine], the p53 response [5] was “higher p53 responses at 24 hr relative to the 4 hr time point”, the “proportion of mitotic (p-H3 positive) cells” value [2] was “concentration-dependent reductions” and the polyploid cells [6] was “not induced”. For the same compound, the top non-precipitating conc. [3] was 250 µM, the γH2AX-associated fluorescence response ([7]; 4 hr time point) was “concentration-related increases” and the γH2AX-associated fluorescence response ([7]; 24 hr time point) was “concentration-related increases”.

In the case of `C=C(C)[C@H]1CC=C(C)CC1` [D-Limonene], the tumor finding [8] is given as “male rat kidney tumors”.

With `CN(C)P(=O)(N(C)C)N(C)C` [Hexamethylphosphoramide] the “cytotoxicity (reductions to RNC)” value [1] was “no evidence of cytotoxicity” and the “proportion of mitotic (p-H3 positive) cells” value [2] was “no evidence of cytotoxicity”.

With `Nc1ccc2cc3ccccc3cc2c1` [2-Aminoanthracene] the top non-precipitating conc. [3] was 500 µM.

For `c1ccc2c(c1)cc1ccc3cccc4ccc2c1c34` [Benzo[a]pyrene], the top non-precipitating conc. [3] was 250 µM.

Work on `CC(=O)Nc1ccc2c(c1)Cc1ccccc1-2` [2-Acetylaminofluorene] yielded a top non-precipitating conc. [3] of 250 µM.

For `O=[N+]([O-])c1ccc2c(c1)Cc1ccccc1-2` [2-Nitrofluorene], the γH2AX-associated fluorescence response ([7]; 4 hr time point) was “robust responses” and the γH2AX-associated fluorescence response ([7]; 24 hr time point) was “considerably reduced”.
